Assay [1] relates to PSMA-expressing target cells (Hek-PSMA, LNCaP, C4-2). Briefly: ADCP assay with anti-23F and U937 monocytes. Particulars: 8 μM compound with 4 μM anti-23F 24 h; 1 h, 37 °C; flow cytometry. It is filed as cell-based, human. As for the experimental part: (§1) Figure 5 Functional analysis of PSMA-targeting SuFEx cARMs. A. Chemical structure of the functional GU cARM molecule used for PSMA targeting. B. Confocal (top) and fluorescent imaging (bottom) of Hek-PSMA cells treated with anti-23F only or anti-23F antibody pre-incubated with rhamnose-SO2F-cARM 14. C. Jurkat activation assay evaluation of 14 directly in polyclonal human IgG. Each cARM/ARM (9 μM) was incubated with polyclonal human IgG (230 μM) overnight and then added to pre-plated Hek-P cells (50,000 cells). To this cell solution, luciferase expressing jurkat cells were added and incubated for 24 hours. Activation of jurkat cells was determined by measuring luciferase expression with a BioGlo assay kit. D. ADCP assays using various PSMA-expressing model and bonafide cancer cell lines. Each cARM/ARM (8 μM) was incubated with anti-23F (4 μM) overnight followed by addition to target cells (150,000 cells). Next, IFN-γ activated monocytes (150,000 cells) were added and incubated for 1 hour at 37 °C. ADCP was determined via flow cytometry.
Finally, the capacity of Rha-cARMs to induce ADCP of multiple target cell lines (varying in PSMA expression) was evaluated. ADCP represents a major mode of antitumor monocyte/macrophage immunotherapeutic function, also invoked by several FDA-approved monoclonal antibody therapies. […]
(Flow cytometry measures light scatter and fluorescence of single cells or particles in a stream.)

A further assay concerns Hek-PSMA cells. The assay is described as follows: ADCC reporter (jurkat activation) assay directly in polyclonal human IgG (Figure 5C). It is filed as cell-based. Particulars: 9 μM compound with 230 μM human IgG 24 h, no column step. Here is the method: as §1
Next, the capacity of alkyl-AI-cARM 10, alkyl-ARM 11, and SO2F-cARM 14 to direct immune activation via polyclonal anti-rhamnose antibodies was evaluated using a modified ADCC reporter assay (Figure 5C). ADCC represents a major mode of antitumor NK cell immunotherapeutic function, common to many FDA-approved monoclonal antibody therapies. […]

From publication PMC10683482, “Offsetting Low-Affinity Carbohydrate Binding with Covalency to Engage Sugar-Specific Proteins for Tumor-Immune Proximity Induction” (ACS Central Science, 2023) come the findings set out here.

As to `C[C@@H]1O[C@@H](OCc2cn(CCc3cn(C(=O)OCCNC(=O)CCCCCNC(=O)CCCCCNC(=O)CCCCCNC(=O)NCCCC[C@H](NC(=O)N[C@@H](CCC(=O)O)C(=O)O)C(=O)O)cn3)nn2)[C@H](O)[C@H](O)[C@H]1O` [compound 10], in assay [1], the “induction of ADCP” value is “nonfunctional”. Besides, the “jurkat (immune) activation” value with Hek-PSMA cells is listed as “failed to direct immune activation”.
Consider `C[C@@H]1O[C@@H](OCc2cn(CCCNC(=O)OCCNC(=O)CCCCCNC(=O)CCCCCNC(=O)CCCCCNC(=O)NCCCC[C@H](NC(=O)N[C@@H](CCC(=O)O)C(=O)O)C(=O)O)nn2)[C@H](O)[C@H](O)[C@H]1O` [compound 11], for which, in assay [1], the “induction of ADCP” value is “failure”. Moreover, the “jurkat (immune) activation” value with Hek-PSMA cells is “failed to direct immune activation”.
